Data published in PMC3693115 (Evidence-based Complementary and Alternative Medicine : eCAM, 2013).

Assays:
[1] = DPPH microplate assay (radical scavenging activity); conditions: for Antioxidant IC50 (radical scavenging activity) / Antioxidant % inhibition (at 100 µg/mL): mean ± SEM (n = 3)
Description: The antioxidant capacity was estimated in terms of radical scavenging activity according to a modified version of Brand-Williams method. Briefly, 100 μL of tested compounds at least 5 concentrations (dissolved in MeOH) was thoroughly mixed with 100 μL of freshly prepared DPPH solution (3 × 10^−5 M dissolved in MeOH). The reaction mixture was incubated for 30 min, then, the absorbance was read at 517 nm. Each assay was done in triplicate. IC50 value was determined by a linear regression analysis between the inhibition percentages against the concentration of tested compounds by using the Excel program.

[2] = biological target: T1, AChE (purified enzyme from eel (Electrophorus electricus) type VI-s) (Electrophorus electricus, UniProt O42275); test: biochemical; conditions: mean ± SEM (n = 3); for inhibition at 100 µg/mL: read-out: Anticholinesterase (using purified enzyme from E. electricus) % inhibition (at 100 µg/mL)
T1 construct: a purified enzyme from eel (Electrophorus electricus) type VI-s; purchased Sigma (St. Louis, MO, USA); host or cells: purified from electric eel (natural source)
T1 sequence (O42275 24-633): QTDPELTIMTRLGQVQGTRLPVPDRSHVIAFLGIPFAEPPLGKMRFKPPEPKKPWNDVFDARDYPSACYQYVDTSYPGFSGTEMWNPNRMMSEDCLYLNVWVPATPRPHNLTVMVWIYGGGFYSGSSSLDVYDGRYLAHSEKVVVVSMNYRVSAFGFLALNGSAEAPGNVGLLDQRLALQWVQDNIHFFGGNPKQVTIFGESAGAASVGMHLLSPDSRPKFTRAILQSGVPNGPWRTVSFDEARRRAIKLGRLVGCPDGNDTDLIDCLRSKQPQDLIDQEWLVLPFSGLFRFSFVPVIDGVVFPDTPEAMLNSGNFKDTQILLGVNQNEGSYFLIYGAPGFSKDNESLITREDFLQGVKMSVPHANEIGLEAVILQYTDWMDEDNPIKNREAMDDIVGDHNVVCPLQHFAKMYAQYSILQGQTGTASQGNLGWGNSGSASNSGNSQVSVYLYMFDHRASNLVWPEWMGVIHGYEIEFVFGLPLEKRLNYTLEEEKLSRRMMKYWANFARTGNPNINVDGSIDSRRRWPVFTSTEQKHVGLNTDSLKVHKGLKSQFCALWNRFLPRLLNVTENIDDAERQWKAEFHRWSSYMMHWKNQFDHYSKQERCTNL
Description: Ellman's colorimetric method and modified method using 96-well microplates were used. Briefly, […], the product of hydrolysis reaction of ACh by cholinesterase, will react with DTNB to give 2-nitro-5-thiobenzoate (NTB^−), which ionizes to the NTB^2- dianion (in water at pH 8). This NTB^2- ion appears as yellow, which is quantified by measuring the absorbance of visible light at 405 nm. Briefly, tested compound was prepared in buffer a containing 50% MeOH. In a 96-well microtiter plate, 25 μL of tested sample was added to 200 μL reaction medium that consisted of 50 μL of buffer (50 mM TrisHCl pH 8.0) containing 0.1% BSA, 125 μL of 3 mM DTNB in buffer containing 0.1 M NaCl, and 0.02 M MgCl2·2H2O and 25 μL of 15 mM ATCI in deionized water. These contents were mixed and preincubated for 5 min at 37°C. The plate was pre-read at 405 nm using a microplate reader (TECAN M200, Switzerland). Thereafter, the reaction was initiated by the addition of 25 μL of AChE (0.22 U/mL). After 20 min incubation at 37°C, absorbance was measured again within 4–7 min. The reaction control consisted of reaction medium (200 μL), 25 μL of enzyme, and 25 μL of 50% MeOH in buffer. Two blanks were also carried out (with and without sample), and MeOH was used as the solvent control. […] Each assay was done in triplicate.

[3] = biological target: cellular AChE of SK-N-SH cells (Homo sapiens, UniProt P22303); test: cell-based; set-up: host or cells: SK-N-SH human neuroblastoma cells; conditions: for IC50: mean ± SEM (n = 3), read-out: Anticholinesterase (using neuroblastoma cell) IC50 (converted); for inhibition at 100 µg/mL: read-out: Anticholinesterase (using neuroblastoma cell) % inhibition (at 100 µg/mL), 100 µg/mL, mean ± SEM (n = 3)
cellular AChE of SK-N-SH cells, sequence (P22303 32-614): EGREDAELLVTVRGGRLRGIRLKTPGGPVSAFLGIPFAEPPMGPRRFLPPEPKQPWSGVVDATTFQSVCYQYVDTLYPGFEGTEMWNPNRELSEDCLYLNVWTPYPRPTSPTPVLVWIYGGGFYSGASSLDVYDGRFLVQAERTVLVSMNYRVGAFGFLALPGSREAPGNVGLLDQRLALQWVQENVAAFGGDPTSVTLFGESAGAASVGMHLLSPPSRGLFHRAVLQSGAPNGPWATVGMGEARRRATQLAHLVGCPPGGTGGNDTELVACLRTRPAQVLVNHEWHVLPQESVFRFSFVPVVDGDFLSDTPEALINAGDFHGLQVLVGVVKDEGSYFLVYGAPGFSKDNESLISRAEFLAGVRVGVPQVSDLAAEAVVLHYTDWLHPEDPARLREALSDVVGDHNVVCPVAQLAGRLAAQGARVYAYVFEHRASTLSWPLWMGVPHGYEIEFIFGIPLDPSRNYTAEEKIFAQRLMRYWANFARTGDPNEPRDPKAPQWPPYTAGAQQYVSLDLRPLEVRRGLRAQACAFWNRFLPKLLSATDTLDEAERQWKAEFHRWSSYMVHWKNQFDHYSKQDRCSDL
Description: The human neuroblastoma cell line SK-N-SH was purchased from the American Type Culture Collection (Manassas, VA, USA). The SK-N-SH cells were cultured in minimum essential medium from Gibco (California, USA), supplemented with 10% heat inactivated FBS, 2% supplementary amino acid solution, and 1% Glutamax (Gibco, California, USA), 1% penicillin/streptomycin. Incubation was carried out at 37°C in a humidified atmosphere of 5% CO2-95% […] atmosphere. Cells were seeded into 96-well microplates (Nunc, Roskilde, Denmark) at a density of 1 × 10^5 cells/mL (100 μL in each well). Experiments were carried out after 24 h of seeding.
One of the important neuronal properties of SK-N-SH cells is the synthesis of neurotransmitter enzymes. The inhibition activity of samples on this cell line was investigated by the modified Ellman's colorimetric method. The condition was slightly modified to enable the cellular enzyme to work properly. Briefly, 25 μL of sample dissolved in buffer containing 50% methanol, 100 μL of 3 mM DTNB in buffer containing 0.1 M NaCl and 0.02 M MgCl2·2H2O, and 25 μL of 15 mM ATCI in deionized water were added to the well containing 100 μL of the cells. The absorbance at 405 nm was measured by a microplate reader (TECAN M200, Switzerland). All assays were done in triplicate.

in vitro = format: cell-based; conditions: mouse
Description: The exponentially grown cultures indicated the cells density by trypan blue exclusion assay. Then, neuronal differentiation was induced by seeding 2 × 10^6 cells/mL cell in a 100 mm bacteriological grade culture dish containing 10 mL α-MEM supplemented with 5% FBS, 1% antibiotics-antimycotic solution, and 0.5 μM RA. […] After 4 days of RA treatment, aggregates were dissociated with trypsin, washed, resuspended on poly-L-lysine-precoated 96-well plates (plates were previously coated with 50 μg/mL poly-L-lysine dissolved in PBS for overnight and sterilized under UV light for 30 min) at a cell density of 7 × 10^4 cells/mL (150 μL/well) in α-MEM supplemented with 10% FBS and 1% antibiotics-antimycotic solution, and incubated for 24 h. Ara-C (10 μM) was added at day one after plating to inhibit the proliferation of nonneuronal cells. […]
The procedure was carried out on P19-derived neurons cultured in a 96-well plate [29]. […] The data were expressed as the mean ± SEM (n = 3), with the medium as a control representing 100% cell viability.

P19-derived neurons [4] = test: Neuritogenic assay (neurite number and length); format: cell-based, Murine; conditions: 1 nM, 24 h, 30 neurons measured
Description: Murine P19 embryonic carcinoma cells were purchased from American Type Culture Collection (ATCC), USA. P19 cells were cultured as described by Mcburney in a slightly modification. In brief, the undifferentiated P19 cells were cultured as monolayers in α-MEM with 7.5% NCS, 2.5% FBS, and 1% antibiotics-antimycotic solution in a 25-cm^2 tissue culture flask, incubated at 37°C in a humidified atmosphere of 5% CO2. Cells in monolayer cultures were maintained in exponential growth phase by subculturing every 2 days until use.
The exponentially grown cultures indicated the cells density by trypan blue exclusion assay. Then, neuronal differentiation was induced by seeding 2 × 10^6 cells/mL cell in a 100 mm bacteriological grade culture dish containing 10 mL α-MEM supplemented with 5% FBS, 1% antibiotics-antimycotic solution, and 0.5 μM RA. […]
The assay was carried out with P19-derived neurons cultured in a poly-L-lysine-precoated 6-well plate. […] Average length and number of neurites of 30 neurons from the assay were measured. […] The data were expressed as the mean ± SEM from three independent experiments.

P19-derived neurons [5] = test: Neuroprotective activity against oxidative stress induced by serum deprivation (XTT); format: cell-based, Murine; conditions: 1 nM, 24 h
Description: Murine P19 embryonic carcinoma cells were purchased from American Type Culture Collection (ATCC), USA. P19 cells were cultured as described by Mcburney [24, 25] in a slightly modification [26, 27]. In brief, the undifferentiated P19 cells were cultured as monolayers in α-MEM with 7.5% NCS, 2.5% FBS, and 1% antibiotics-antimycotic solution in a 25-cm^2 tissue culture flask, incubated at 37°C in a humidified atmosphere of 5% CO2. Cells in monolayer cultures were maintained in exponential growth phase by subculturing every 2 days until use.
The blank control was cultured in α-MEM supplemented with 10% FBS and 10 μM Ara-C. The cell survival ability was measured using the XTT method.

Compound	Antioxidant IC50 (radical scavenging activity) [1]	Antioxidant % inhibition (at 100 µg/mL) [1]	inhibition at 100 µg/mL [2]	IC50 [3]	inhibition at 100 µg/mL [3]	also measured
O=C1O[C@H]([C@@H](O)CO)C(O)=C1O [Ascorbic acid, reference compound]	10.52 ± 0.48 µg/mL	–	–	–	–	–
O=C(O)c1cc(O)c(O)c(O)c1 [Gallic acid]	4.83 ± 0.02 µg/mL	94.76 ± 0.51%	73.64 ± 0.06%	16.4 µM	90.7 ± 2.66%	IC50 ([2]; read-out: Anticholinesterase (using purified enzyme from E. electricus) IC50 (converted)): 74.8 µM
O=c1c(O)c(-c2ccc(O)c(O)c2)oc2cc(O)cc(O)c12 [Quercetin, 3,3′,4′,5,7-pentahydroxyflavone]	3.18 ± 0.07 µg/mL	92.61 ± 0.99%	80.9 ± 2.52%	121 µM	82 ± 3.34%	IC50 ([1]; converted to molar, read-out: Antioxidant activity IC50 in micromolar range): 9.4 µM; IC50 at 18 h (in vitro): > 10 µM; viability at 24 h, 0.001 µM (in vitro; 1 nM, 24 h treatment, relative to control (100%), read-out: % cell viability of cultured neurons): > 100%; Neurite length (P19-derived neurons [4]): 139.00 ± 108.80 μm; Cell survival in serum-supplemented culture (P19-derived neurons [5]; compared to the control (P19SM)): 128.01%; Cell survival in serum-deprived culture (P19-derived neurons [5]; serum-free α-MEM, serum deprivation alone 31.16%): 88.29%
Cc1c(C)c2c(c(C)c1O)CCC(C)(C(=O)O)O2 (centres unmarked) [Trolox, reference compound]	12.54 ± 0.89 µg/mL	–	–	–	–	–
COC1=C2C[C@@H](C)C[C@H](OC)[C@H](O)[C@@H](C)/C=C(\C)[C@H](OC(N)=O)[C@@H](OC)/C=C\C=C(/C)C(=O)NC(=CC1=O)C2=O [geldanamycin, Geldanamycin, reference compound]	–	–	–	–	–	Amount of neurites (P19-derived neurons [4]): 2.03 ± 1.30
